For this test, the target named is T1, CB2 receptor (Mus musculus, UniProt P47936).
T1 construct: membranes were prepared from frozen mouse spleen; from tissue; host or cells: mouse spleen membranes
In words: CB2 receptor binding assay ([3H] CP-55,940 displacement, mouse spleen membranes). The note with it: CB2 (mouse spleen) versus CB1 (rat forebrain membranes) binding affinity. How it is done:
As used herein, “binding affinity” (Ki) is represented by the IC50 value which is the concentration of an analog required to occupy the 50% of the total number (Bmax) of the receptors. The lower the IC50 value the higher the binding affinity. […] The AM1703 material was tested for CB2 receptor binding affinity and for CB1 receptor affinity (to determine selectivity for the CB2 receptor).
Membranes, previously frozen at −80° C., were thawed on ice. To the stirred suspension was added three volumes of TME (25 mM Tris-HCI buffer, 5 mM MgCl2 and 1 mM EDTA) at a pH 7.4. The suspension was incubated at 4° C. for 30 min. At the end of the incubation, the membranes were pelleted and washed three times with TME.
The treated membranes were subsequently used in the binding assay described below. Approximately 30 μg of membranes were incubated in silanized 96-well microtiter plate with TME containing 0.1% essentially fatty acid-free bovine serum albumin (BSA), 0.8 nM [^3H] […] Radioactivity was detected using MicroScint 20 scintillation cocktail added directly to the dried filterplates, and the filterplates were counted using a Packard Instruments Top-Count. Nonspecific binding was assessed using 100 nM CP-55,940. […] CP-55,940, determined using buffer and 100 nM CP-55,940. The normalized data was analyzed using a 4-parameter nonlinear logistic equation to yield IC50 values. […]

Consider one molecule from patent US7335688B2, “Bicyclic cannabinoid agonists for the cannabinoid receptor” (University of Connecticut, priority 1999, dated 2008).

T1 sequence (P47936 whole entry): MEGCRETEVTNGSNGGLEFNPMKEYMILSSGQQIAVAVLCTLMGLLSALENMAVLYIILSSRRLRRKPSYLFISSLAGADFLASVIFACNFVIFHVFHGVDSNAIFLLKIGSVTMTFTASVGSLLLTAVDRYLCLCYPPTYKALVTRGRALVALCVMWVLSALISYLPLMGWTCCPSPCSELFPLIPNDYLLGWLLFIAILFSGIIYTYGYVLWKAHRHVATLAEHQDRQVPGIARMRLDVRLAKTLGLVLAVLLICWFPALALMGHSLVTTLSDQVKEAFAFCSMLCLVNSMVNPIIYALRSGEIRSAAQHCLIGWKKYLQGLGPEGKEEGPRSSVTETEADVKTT

Turning to `C#CCCCCC(C)(C)c1cc(O)c([C@@H]2CC(=O)[C@@H]3C[C@H]2C3(C)C)c(O)c1` [AM1703], the “CB2 selectivity over CB1” value was about 500 fold.
